Assay results from PubChem BioAssay AID493141 (Sanford-Burnham Center for Chemical Genomics, 2011).
Where “and” joins values, the source holds several entries; their conditions need not be identical. Equal values may be shown once. Calls of active or inactive are those of the source. How the calls were made is not given here.

Biological target: Alkaline phosphatase, tissue-nonspecific isozyme (Homo sapiens) (UniProt P05186)
Assay: inhibition of tissue-nonspecific alkaline phosphatase – biochemical, selectivity assay for human IAP inhibitor project, SAR follow-up (AID 493141)
Conditions: isolated enzyme, CDP-Star luminescence, 30 min

Alkaline phosphatase, tissue-nonspecific isozyme (Homo sapiens), sequence (P05186 whole entry, looked up): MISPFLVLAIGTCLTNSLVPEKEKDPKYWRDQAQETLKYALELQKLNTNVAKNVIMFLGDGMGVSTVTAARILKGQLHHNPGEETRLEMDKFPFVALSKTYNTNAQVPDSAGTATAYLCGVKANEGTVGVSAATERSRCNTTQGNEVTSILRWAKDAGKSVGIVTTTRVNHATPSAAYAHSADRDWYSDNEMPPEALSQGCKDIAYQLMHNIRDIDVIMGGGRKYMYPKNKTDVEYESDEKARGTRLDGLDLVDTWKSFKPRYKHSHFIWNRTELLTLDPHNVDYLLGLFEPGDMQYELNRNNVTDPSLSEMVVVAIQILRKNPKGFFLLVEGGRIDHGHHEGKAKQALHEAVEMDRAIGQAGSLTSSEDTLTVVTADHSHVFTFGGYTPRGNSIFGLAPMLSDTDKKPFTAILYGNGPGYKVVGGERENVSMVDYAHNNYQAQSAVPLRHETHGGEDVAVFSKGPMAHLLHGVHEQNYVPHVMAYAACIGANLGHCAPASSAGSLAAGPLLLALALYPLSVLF

Structure (SMILES)	IC50
O=S(=O)(c1ccc(NC(=S)N/N=C/c2ccc(O)c(O)c2O)cc1)N1CCOCC1	> 100 µM (inactive)
Cc1ccc(C)c(Nc2nc(-c3ccc(O)cc3O)cs2)c1	> 100 µM (inactive)
COc1ccc(C=NN=C2SC(CC(=O)O)C(=O)N2c2ccc(O)cc2)cc1 (stereo not given)	> 100 µM (inactive)
COc1ccc(Cl)cc1Nc1nc(-c2ccc(O)c(O)c2)cs1	> 100 µM (inactive) and 83.7 µM
COc1cc(/C=N/N=C2\NC(=O)C(CC(=O)O)S2)cc(OC)c1OC (stereo not given)	> 100 µM (inactive)
O=[N+]([O-])c1ccccc1NC(=S)NN=Cc1ccc(O)c(O)c1	42.8 µM
Cc1ccc(Nc2nc(-c3ccc(O)c(O)c3)cs2)cc1	> 100 µM (inactive)
COc1ccc(/C=N/N=C2/NC(=O)C(CC(=O)O)S2)cc1OC (stereo not given)	> 100 µM (inactive)
COc1cc(/C=N/N=C2/SCC(=O)N2c2ccc(O)cc2)ccc1O	> 100 µM (inactive)
COc1cc(C=NNC(=S)Nc2cccc(C(=O)O)c2)ccc1O	> 100 µM (inactive)
CN(C)S(=O)(=O)c1cccc(NC(=S)NN=Cc2ccc(O)c(O)c2O)c1	> 100 µM (inactive)
Cc1cccc(Nc2nc(-c3ccc(O)c(O)c3)cs2)c1	60.6 µM
Oc1ccc(Nc2nc(-c3ccc(O)c(O)c3)cs2)cc1	17.8 µM
O=S(=O)(Nc1ncccn1)c1ccc(NC(=S)NCCC(c2ccccc2)c2ccccc2)cc1	> 100 µM (inactive)
NS(=O)(=O)c1ccc(Nc2nc(-c3ccc(O)cc3O)cs2)cc1	59.9 µM
CCN(CC)S(=O)(=O)c1ccc(-c2csc(=Nc3cccc4ccccc34)n2C)cc1	> 100 µM (inactive)
COc1cc(C(=O)NNC(=S)Nc2ccc(S(N)(=O)=O)cc2)cc(OC)c1OC	> 100 µM (inactive)
COC(=O)/C=C1/S/C(=N/NC(=O)c2ccccc2)NC1=O	> 100 µM (inactive)
Cc1cccc(NC(=S)NN=Cc2ccc3c(c2)OCO3)c1	> 100 µM (inactive)
COc1cc([N+](=O)[O-])ccc1NC(=S)NCCC(c1ccccc1)c1ccccc1	> 100 µM (inactive)
CC(=NNC(=S)Nc1ccccc1)c1ccc2c(c1)OCO2	> 100 µM (inactive)
COC(=O)/C=C1/S/C(=N/N=Cc2ccc(N(C)C)cc2)NC1=O	> 100 µM (inactive)
N#CCCn1cc(/C=N/N=C2/NC(=O)C(CC(=O)O)S2)c(-c2ccc(F)cc2)n1 (stereo not given)	> 100 µM (inactive)
COc1ccc(C=Nn2c(=S)n(C)c3ccccc32)cc1OC	> 100 µM (inactive)
Cc1cccc(C)c1NC(=S)N/N=C/c1ccc(O)c(O)c1O	> 100 µM (inactive)

Structure (SMILES)	IC50
Cc1cccc(NC(=S)NNC(=O)c2ccc3c(c2)OCO3)c1	> 100 µM (inactive)
COc1cc(C=NNC(=S)Nc2cccc(S(=O)(=O)N(C)C)c2)cc(OC)c1O	> 100 µM (inactive)
Oc1ccc(-c2csc(Nc3ccccc3)n2)c(O)c1	> 100 µM (inactive)
COc1ccc(-c2csc(Nc3cccc4ccccc34)n2)cc1	> 100 µM (inactive)
Oc1ccc(-c2csc(Nc3cccc4ccccc34)n2)cc1O	22.5 µM and 27.9 µM
COC(=O)/C=C1\S/C(=N/N=C/CC(=O)OC)NC1=O	> 100 µM (inactive)
Oc1ccc(-c2csc(Nc3ccc(F)cc3)n2)cc1O	54.8 µM
COC(=O)C/C=N/N=C1\NC(=O)/C(=C/C(=O)O)S1	> 100 µM (inactive)
Cc1ccc(Nc2nc(-c3ccc(O)cc3O)cs2)cc1	> 100 µM (inactive)
CCOc1cc(/C=N/N=C2\NC(=O)C(CC(=O)O)S2)ccc1O (stereo not given)	> 100 µM (inactive)
COC(=O)/C=C1\S/C(=N/N=C/c2ccc(Cl)cc2)NC1=O	> 100 µM (inactive)
Cc1ccc(-c2ccc(/C=N/N=C3\NC(=O)C(CC(=O)O)S3)o2)c([N+](=O)[O-])c1 (stereo not given)	> 100 µM (inactive)
CCOc1cc(C=N/N=C2/NC(=O)C(CC(=O)O)S2)ccc1OCc1ccccc1Cl (stereo not given)	> 100 µM (inactive)
S=C(NCCC(c1ccccc1)c1ccccc1)Nc1ccc(Cl)cc1Cl	> 100 µM (inactive)
Cc1cc(=O)oc2cc(NC(=S)NCCC(c3ccccc3)c3ccccc3)ccc12	> 100 µM (inactive)
Cc1cccc(Nc2nc(-c3ccc(O)c(C(N)=O)c3)cs2)c1	> 100 µM (inactive)
COc1cc(C=NN=C2SC(CC(=O)O)C(=O)N2c2ccc(O)cc2)ccc1O (stereo not given)	> 100 µM (inactive)
NS(=O)(=O)c1ccc(Nc2nc(-c3ccc(O)c(O)c3)cs2)cc1	6.26 µM
COc1ccc(-c2csc(Nc3cccc4ccccc34)n2)cc1F	> 100 µM (inactive)
COC(=O)/C=C1\SC(N=Nc2c(O)[nH]c3ccccc23)=NC1=O	> 100 µM (inactive)
COC(=O)/C=C1/S/C(=N/NC(=O)c2ccc(OC)cc2)NC1=O	> 100 µM (inactive)
Cc1cc(C)cc(Nc2nc(-c3ccc(O)cc3O)cs2)c1	> 100 µM (inactive)
COC(=O)/C=C1/S/C(=N/NC(=O)c2ccccc2OC)NC1=O	> 100 µM (inactive)
Cc1ccc(Cl)cc1Nc1nc(-c2ccc(O)c(O)c2)cs1	51.4 µM
CC(C)(C)c1ccc(/C=N/N=C2\NC(=O)C(CC(=O)O)S2)cc1 (stereo not given)	> 100 µM (inactive)

Structure (SMILES)	IC50
O=[N+]([O-])c1ccc(NC(=S)NCCC(c2ccccc2)c2ccccc2)cc1	> 100 µM (inactive)
Cc1ccc(Nc2nc(-c3ccc(O)c(O)c3)cs2)cc1F	79.4 µM
COC(=O)/C=C1/S/C(=N/NC(=O)c2ccc(Cl)cc2Cl)NC1=O	> 100 µM (inactive)
COc1cccc(Nc2nc(-c3ccc(O)cc3)cs2)c1	> 100 µM (inactive)
Cc1c(Cl)cccc1Nc1nc(-c2ccc(O)c(O)c2)cs1	41 µM and > 100 µM (inactive)
COc1ccc(C=NNC(=S)Nc2ccccc2[N+](=O)[O-])cc1O	> 100 µM (inactive)
COC(=O)/C=C1/S/C(=N/NC(=O)c2ccccc2C)NC1=O	> 100 µM (inactive)
CCc1ccccc1Nc1nc(-c2ccc(O)c(O)c2)cs1	30.5 µM and 21.4 µM
COc1cc(C=NNC(=S)Nc2cccc(S(=O)(=O)N(C)C)c2)ccc1O	> 100 µM (inactive)
COc1ccc(NC(=S)NCCC(c2ccccc2)c2ccccc2)cc1	> 100 µM (inactive)
Cc1ccc(Nc2nc(-c3ccc(O)c(C(N)=O)c3)cs2)cc1	> 100 µM (inactive)
FC(F)(F)c1cccc(NC(=S)NCCC(c2ccccc2)c2ccccc2)c1	> 100 µM (inactive)
COc1cc([N+](=O)[O-])ccc1NC(=S)NNC(=O)c1ccc2c(c1)OCO2	> 100 µM (inactive)
O=[N+]([O-])c1ccccc1NC(=S)N/N=C/c1ccc(O)c(O)c1O	86.1 µM
O=S(=O)(c1ccc(NC(=S)N/N=C/c2ccc(O)c(O)c2)cc1)N1CCOCC1	14.1 µM
Cn1c(=S)n(N=Cc2ccc3c(c2)OCO3)c2ccccc21	> 100 µM (inactive)
CCOc1cc(C=NNC(=S)NC2CCCCC2)ccc1O	> 100 µM (inactive)
Cc1cccc2sc(NNC(=O)c3ccc4c(c3)OCCO4)nc12	> 100 µM (inactive)
Cc1ccc(Nc2nc(-c3ccc(O)cc3O)cs2)cc1C	> 100 µM (inactive)
COc1ccc(/C=N/N=C2\NC(=O)C(CC(=O)O)S2)c(OC)c1 (stereo not given)	> 100 µM (inactive)
O=C(O)CC1S/C(=N/N=C/c2ccco2)NC1=O (stereo not given)	> 100 µM (inactive)
Cc1ccc(Nc2nc(-c3ccc(O)cc3O)cs2)cc1F	> 100 µM (inactive)
Cc1ccc2nc(NNC(=O)c3ccc4c(c3)OCCO4)sc2c1	> 100 µM (inactive)
Cc1ccc2sc(NNC(=O)c3ccc4c(c3)OCCO4)nc2c1C	> 100 µM (inactive)
CCOc1ccc(Nc2nc(-c3ccc(O)c(O)c3)cs2)cc1	> 100 µM (inactive)
